# Laboratory results from patent US20210127673A1, “HERBICIDES” (SYNGENTA PARTICIPATIONS AG, priority 2016, published 2021).
# How the values were obtained:
# Assay type in all cases: in vivo
# Settings in all cases: evaluated after 13 days
# [1] = tested on: Echinochloa crus-galli (ECHCG); assay: Post-emergence herbicidal activity, Echinochloa crus-galli; design: key: 5=total damage to plant; 0=no damage to plant
# How it was run: (§1)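 Glasshouse post-emergence spray test: seedlings treated at 8 days after sowing with compound formulated in 50:50 acetone/water plus 0.5% Tween 20, then grown on at 24/16 °C, 14 h light, 65% humidity. Injury rated 13 days later, 0 = no damage, 5 = total damage.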
# Lolium perenne (LOLPE) [2] = assay: Post-emergence herbicidal activity, Lolium perenne
# How it was run: as §1
# Avena fatua (AVEFA) [3] = assay: Post-emergence herbicidal activity, Avena fatua
# How it was run: as §1
# [4] = tested on: Triticum aestivium (TRZAW); assay: Post-emergence herbicidal activity, Triticum aestivium; design: key: 5=total damage to plant; 0=no damage to plant
# How it was run: as §1
# [5] = tested on: Alopecurus myosuroides (ALOMY); assay: Pre-emergence herbicidal activity, Alopecurus myosuroides; design: key: 5=total damage to plant; 0=no damage to plant
# How it was run: (§2)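 Pots of seeds were sprayed one day after sowing (pre-emergence) with compound in acetone/water (50:50) plus 0.5% Tween 20, then grown in a glasshouse at 24/16 °C day/night, 14 h light, 65% humidity. Damage scored 0–5 (5 = total damage) after 13 days.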
# Lolium perenne (LOLPE) [6] = assay: Pre-emergence herbicidal activity, Lolium perenne
# How it was run: as §2
# [7] = tested on: Alopecurus myosuroides (ALOMY); assay: Post-emergence herbicidal activity, Alopecurus myosuroides; design: key: 5=total damage to plant; 0=no damage to plant
# How it was run: as §1
# Avena fatua (AVEFA) [8] = assay: Pre-emergence herbicidal activity, Avena fatua; design: key: 5=total damage to plant; 0=no damage to plant
# How it was run: as §2
# [9] = tested on: Triticum aestivium (TRZAW); assay: Pre-emergence herbicidal activity, Triticum aestivium; design: key: 5=total damage to plant; 0=no damage to plant
# How it was run: as §2
# Setaria faberi (SETFA) [10] = assay: Pre-emergence herbicidal activity, Setaria faberi; design: key: 5=total damage to plant; 0=no damage to plant
# How it was run: as §2
# Setaria faberi (SETFA) [11] = assay: Post-emergence herbicidal activity, Setaria faberi; design: key: 5=total damage to plant; 0=no damage to plant
# How it was run: as §1
# [12] = tested on: Echinochloa crus-galli (ECHCG); assay: Pre-emergence herbicidal activity, Echinochloa crus-galli; design: key: 5=total damage to plant; 0=no damage to plant
# How it was run: as §2
smiles,measurement,setting,value
COc1nc(-c2cncc(F)c2)ccc1NC(=O)OC(C)(C)C [Compound B78],Control of ECHCG after post-emergence application (score 0-5),[1]; 1000 g/ha,2
same,Control of LOLPE after post-emergence application (score 0-5),Lolium perenne (LOLPE) [2]; 1000 g/ha,1
same,Control of AVEFA after post-emergence application (score 0-5),Avena fatua (AVEFA) [3]; 1000 g/ha,2
same,Control of TRAZW after post-emergence application (score 0-5),[4]; 1000 g/ha,0
same,Control of ALOMY after pre-emergence application (score 0-5),[5]; 1000 g/ha,0
same,Control of LOLPE after pre-emergence application (score 0-5),Lolium perenne (LOLPE) [6]; 1000 g/ha,1
same,Control of ALOMY after post-emergence application (score 0-5),[7]; 1000 g/ha,0
same,Control of AVEFA after pre-emergence application (score 0-5),Avena fatua (AVEFA) [8]; 1000 g/ha,0
same,Control of TRAZW after pre-emergence application (score 0-5),[9]; 1000 g/ha,0
same,Control of SETFA after pre-emergence application (score 0-5),Setaria faberi (SETFA) [10]; 1000 g/ha,4
same,Control of SETFA after post-emergence application (score 0-5),Setaria faberi (SETFA) [11]; 1000 g/ha,5
same,Control of ECHCG after pre-emergence application (score 0-5),[12]; 1000 g/ha,2
Cc1cc(CNC(=O)Nc2ccc(-c3cncc(F)c3)nc2C(F)(F)F)c(C(F)(F)F)o1 [Compound B79],Control of ECHCG after post-emergence application (score 0-5),[1]; 1000 g/ha,1
same,Control of LOLPE after post-emergence application (score 0-5),Lolium perenne (LOLPE) [2]; 1000 g/ha,1
same,Control of AVEFA after post-emergence application (score 0-5),Avena fatua (AVEFA) [3]; 1000 g/ha,2
same,Control of TRAZW after post-emergence application (score 0-5),[4]; 1000 g/ha,0
same,Control of ALOMY after pre-emergence application (score 0-5),[5]; 1000 g/ha,0
same,Control of LOLPE after pre-emergence application (score 0-5),Lolium perenne (LOLPE) [6]; 1000 g/ha,1
same,Control of ALOMY after post-emergence application (score 0-5),[7]; 1000 g/ha,0
same,Control of AVEFA after pre-emergence application (score 0-5),Avena fatua (AVEFA) [8]; 1000 g/ha,0
same,Control of TRAZW after pre-emergence application (score 0-5),[9]; 1000 g/ha,0
same,Control of SETFA after pre-emergence application (score 0-5),Setaria faberi (SETFA) [10]; 1000 g/ha,1
same,Control of SETFA after post-emergence application (score 0-5),Setaria faberi (SETFA) [11]; 1000 g/ha,2
same,Control of ECHCG after pre-emergence application (score 0-5),[12]; 1000 g/ha,2
O=C(NCC1CCCCC1)Nc1ccc(-c2cncc(F)c2)nc1C(F)(F)F [Compound B80],Control of ECHCG after post-emergence application (score 0-5),[1]; 250 g/ha,1
same,Control of LOLPE after post-emergence application (score 0-5),Lolium perenne (LOLPE) [2]; 250 g/ha,1
same,Control of AVEFA after post-emergence application (score 0-5),Avena fatua (AVEFA) [3]; 250 g/ha,2
same,Control of TRAZW after post-emergence application (score 0-5),[4]; 250 g/ha,0
same,Control of ALOMY after pre-emergence application (score 0-5),[5]; 250 g/ha,0
same,Control of LOLPE after pre-emergence application (score 0-5),Lolium perenne (LOLPE) [6]; 250 g/ha,2
same,Control of ALOMY after post-emergence application (score 0-5),[7]; 250 g/ha,0
same,Control of AVEFA after pre-emergence application (score 0-5),Avena fatua (AVEFA) [8]; 250 g/ha,1
same,Control of TRAZW after pre-emergence application (score 0-5),[9]; 250 g/ha,0
same,Control of SETFA after pre-emergence application (score 0-5),Setaria faberi (SETFA) [10]; 250 g/ha,2
same,Control of SETFA after post-emergence application (score 0-5),Setaria faberi (SETFA) [11]; 250 g/ha,2
same,Control of ECHCG after pre-emergence application (score 0-5),[12]; 250 g/ha,1
N#CC1(NC(=O)Nc2ccc(-c3cncc(F)c3)nc2C(F)(F)F)CCC1 [Compound B81],Control of ECHCG after post-emergence application (score 0-5),[1]; 1000 g/ha,5
same,Control of LOLPE after post-emergence application (score 0-5),Lolium perenne (LOLPE) [2]; 1000 g/ha,2
same,Control of AVEFA after post-emergence application (score 0-5),Avena fatua (AVEFA) [3]; 1000 g/ha,3
same,Control of TRAZW after post-emergence application (score 0-5),[4]; 1000 g/ha,1
same,Control of ALOMY after pre-emergence application (score 0-5),[5]; 1000 g/ha,1
same,Control of LOLPE after pre-emergence application (score 0-5),Lolium perenne (LOLPE) [6]; 1000 g/ha,1
same,Control of ALOMY after post-emergence application (score 0-5),[7]; 1000 g/ha,1
same,Control of AVEFA after pre-emergence application (score 0-5),Avena fatua (AVEFA) [8]; 1000 g/ha,1
same,Control of TRAZW after pre-emergence application (score 0-5),[9]; 1000 g/ha,0
same,Control of SETFA after pre-emergence application (score 0-5),Setaria faberi (SETFA) [10]; 1000 g/ha,5
same,Control of SETFA after post-emergence application (score 0-5),Setaria faberi (SETFA) [11]; 1000 g/ha,5
same,Control of ECHCG after pre-emergence application (score 0-5),[12]; 1000 g/ha,5
